Source: a melting point compilation (Tetko et al.; mined from patent text by program, amines drawn as free bases though some values may be those of a salt)

melting point [°C] | Compound
164 | O=c1ccc(-c2nc3ccccc3s2)cn1Cc1ccc(Cl)c(F)c1
83 to 84 | COc1ccc(-c2nc(SCCO)sc2-c2ccc(OC)cc2)cc1
73.4 to 73.5 | O=C(O)c1cc(=O)c2cccc(/C=C/c3ccc(OCCCCc4ccccc4)cc3F)c2o1
179 to 180 | COc1ccc(Cc2nc3cccc(NCc4ncc[nH]4)c3o2)cc1OC1CCCC1
142 to 146 | CCOc1ccc(NC(N)=S)cn1
172 to 173 | CCCC(CCC)NC(=O)Nc1ccc(OC)cc1OC
258 to 259 | CC(C)(C)C(NC(=O)c1ccc(Cl)cc1)Nc1c(Nc2ccc(Cl)nc2)c(=O)c1=O (stereo not drawn)
243 to 245 | CS(=O)c1ccc(-n2cnc3ccc(-c4nnc(C5CC5)o4)cc32)cc1 (stereo not drawn)
167 to 169 | S=C(Nc1ccccc1Cl)N1CCN(c2cnccn2)CC1
122 | O=C(c1ccc(-c2ccc(OCCCN3CCCCC3)cc2)cc1)N1CCCCC1
145 to 147 | CC(C)(C#N)c1cc(C=O)cc(C(C)(C)C#N)c1
66.5 to 67.5 | O=C(O)CCCCCCCCOc1ccccc1
90 to 92 | COC(=O)C1Oc2ccc([N+](=O)[O-])cc2O1 (stereo not drawn)
145 to 147 | CCCCc1oc2ccc(-c3nnn[nH]3)cc2c1C(=O)c1ccc(OCCCN(CCCC)CCCC)cc1
93 to 94 | CCCOc1ccc(N(C)S(=O)(=O)c2ccc(C)cc2)c([N+](=O)[O-])c1
85 to 88 | CCNC(=O)c1sc(I)cc1[Si](C)(C)C
168 to 170 | Clc1ccccc1-c1nc(-c2ccc3c(c2)OCO3)c(-c2ccc3c(c2)OCO3)[nH]1
228 to 230 | COC(=O)C1CCC2C3CCC4CC(O)C(O)CC4(C)C3C(NC(=O)OCC(Cl)(Cl)Cl)CC12C (stereo not drawn)
120 | C=C(CC)C(=O)c1ccc(OC2(C(=O)O)CCC2)c(Cl)c1Cl
85 to 87 | CCOC(=O)c1nn(CC)c2nccc(O)c12
101 to 102 | O=C1CC(CO)N1C(c1ccccc1)c1ccccc1 (stereo not drawn)
99 to 101 | CN1C(=O)C2(CCCC2(C)C)c2ccccc21 (stereo not drawn)
120 to 122 | COc1ccc(CN(Cc2ccc(OC)cc2)c2nc(-c3ccccc3)c(-c3ccc(=O)n(C(C)C)n3)nc2C(N)=O)cc1
262 to 266 | COc1ccc(-c2nc(S(=O)(=O)C(C)C)[nH]c2-c2ccncc2)cc1

melting point [°C] | Compound
128 to 130 | O=C(Cc1ccccc1)NC1CN(OC(=O)c2ccccc2)C1=O (stereo not drawn)
168 to 170 | Cc1ccccc1-c1c(C(=O)NCc2cc(C(F)(F)F)cc(C(F)(F)F)c2)n(C)c(=O)c2ccccc12
285 to 286 | Cc1ccc2ncn(-c3nnn[nH]3)c(=O)c2c1
229 to 232 | CSCC(C)NC(=O)c1c(I)cccc1C(=O)Nc1ccc(C2(c3ccc(Cl)cc3)CC2(F)F)cc1C (stereo not drawn)
288 to 290 | NC(=O)NNc1c(Cl)cccc1Cl
121 to 122 | COc1nc(F)cc2nc(SCc3ccccc3)nn12
116 | COC(=O)c1ccc(F)cc1NS(C)(=O)=O
62 to 64 | CCCc1c(OCCCCCC(=O)O)ccc(C(C)=O)c1O
83 to 86 | O=C1NC(=O)C(C2CC=CCC2)O1 (stereo not drawn)
136 to 137 | Cc1oc(-c2ccccc2)nc1COc1ccc(Cc2nc(CCC(=O)O)c(-c3ccccc3)o2)cc1
115 | Nc1cccc(OCCN2CCCCC2)c1
208 to 211 | c1ccc2cc(-c3scc4c3OCCO4)ccc2c1
267 to 268 | CC(C)(C)OC(=O)NCCCn1c2c(c3ccc(NC(=O)C(=O)O)cc3c1=O)C(=O)c1ccccc1-2
174 to 175 | CCCc1cc(C#N)sc1-c1ccc2c(c1)C(C)(C)OC(=S)N2
124 | Cc1ccc2c(C3CCN(CCN4CCN(C(C)C)C4=O)CC3)cn(-c3ccc(F)cc3)c2c1
166 to 167 | Fc1cc(Cl)ccc1/C=C/c1nc(COc2ccc(-c3nc(Cn4ccnc4)co3)cc2)co1
71 to 74 | CCOC(=O)c1ncc2ccccc2n1
233 to 234 | O=c1[nH]c2cc(Cl)ccc2c(=O)c(-c2ccco2)c1O
305 to 306 | CCOC(=O)c1ccc(-c2cc3c(NCc4cccc(Cl)c4)ncnc3[nH]2)cc1
219 to 220 | O=c1ccc2cc(-c3ccccc3)ccc2n1O
103 to 104 | CCS(=O)(=O)C(F)(F)c1nnc(OCC(=O)N(C)c2ccccc2)s1
104 to 108 | CC1c2cccc3c2N(CC3)c2ccccc2N1C(=O)CN(C)C (stereo not drawn)
94 to 95 | COc1ccc(C2(C#Cc3ccc(N4CN=C(C)O4)s3)CCC(=O)CC2)cc1OC1CCCC1
195 to 196 | COc1cc2c(c3c1OC(C)(C)C3)C(c1ccc(=O)[nH]c1)=NC(C)(C)C2

melting point [°C] | Compound
130 to 133 | CCN(CC)CC(O)CNC(=O)c1c(OC(=O)c2ccccc2)c2ccccc2n1-c1ccccc1 (stereo not drawn)
62 | CC(C)(CCOc1ccc(Cl)cc1Cl)C(=O)Cn1cncn1
152 to 154 | NS(=O)(=O)c1ccc(-c2cc(C(=O)CCCO)nn2C2CCCCC2)cc1
221 | CC(C)(C)c1cc(/C=C/c2nnc(N)o2)cc(C(C)(C)C)c1O
142 to 143 | O=C(Nc1ccc(C(=O)N2C[C@@H]3CCCN3S(=O)(=O)c3ccccc32)cc1)c1ccccc1-c1ccccc1
93 | CCOC(=O)C1CCN(C(=O)OCC)c2ccccc2C1O (stereo not drawn)
123 to 125 | CC(CCC(=O)O)C1CCC2C3CCC4CC(OC=O)CCC4(C)C3CC(OC=O)C12C (stereo not drawn)
84 | CCC[C@H](NC(=O)Cc1cc(C)sc1C)C(=O)Nc1ncc(-c2ccccc2COCC)s1
124 to 125 | CC(C)(S)C(=O)NC(=O)[C@@H](N)CS
138 to 141 | COCC1CCCN1S(=O)(=O)c1ccc2c(c1)C1(OCCCO1)C(=O)N2CCC#N (stereo not drawn)
162 to 163 | COC(=O)c1cc(O)n(C(C)C)n1
87 to 88 | COc1ccc(C2=NN(Cc3ccccc3C(F)(F)F)C(=O)[C@H]3CCCC[C@@H]23)cc1OC (relative stereo)
229 | CS(=O)(=O)c1ccc(C(=O)N[C@H]2CC[C@H](CCN3CCN(c4nccc5c4CCO5)CC3)CC2)s1
142 to 144 | CC(C)(C)OC(=O)Nc1ccc(C#Cc2ccccn2)cc1[N+](=O)[O-]
170 | Cn1c(/C=C/C(O)CC(O)CC(=O)O)c(-c2ccccc2)c2ccccc2c1=O (stereo not drawn)
78 to 79 | CCC(CC)n1nnc2c(Cl)nc(C)cc21
168 | CCn1c2ccccc2c2cc(C=Cc3ccc([N+](=O)[O-])cc3)ccc21
150 to 151 | CCOC(=O)c1ccc(-c2cc(C(=O)OCC)c(N)[nH]2)cc1
227 to 228 | O=c1nc(-c2cccc(SCc3ccccc3)n2)sc2ccccc12
82 | COC(=O)CC(=O)c1ccc(-c2ccccc2)cc1
205 to 206 | COc1ccc(-c2ccccc2)c2sc(-c3ncc[nH]3)nc12
76 to 78 | CCCCCCCOc1ccc(C(=O)O)c(Cl)c1
83 to 84 | CCCCCCCCCCCc1cc(O)c(CCCCCC)c(=O)o1
224 to 225 | COc1ncccc1-c1cc2cc(C(=O)NCCCN3CCOCC3)ccc2[nH]1

melting point [°C] | Compound
226 | COc1cc2ncnc(N3CCc4ccc(Cl)cc43)c2cc1Cl
170 to 171 | CC(=NO)C(C)(C)NCC(Cn1ccnc1[N+](=O)[O-])ONC(C)(C)C(C)=NO (stereo not drawn)
146 to 147 | O=c1c2c(nc3ccc(Cl)cn13)CCC2
151 to 153 | Cn1c(OCC(CO)CO)nc2c(NC(=O)c3ccccc3)ncnc21
86 | CCCCN(CCCC)c1ccc(C(C#N)=C(C#N)C#N)c(OC)c1
107 to 109 | O=S(=O)(Nc1cccc(CCOCc2nc(-c3ccc(C(F)(F)F)cc3)sc2Cl)c1)C(F)(F)F
157 to 158 | COC(=O)Cn1c(C)cc(Cc2ccsc2)c([N+](=O)[O-])c1=O
119 to 120 | CCCc1cc(Cl)c2oc(Cc3ccc(OC(C)=O)cc3)c(C)c2c1OC(C)=O
84 | Clc1ccc(C=C(OC2CCCCC2)n2cncn2)c(Cl)c1
191 to 193 | CC=CC(=O)N1CCN(NC(=O)c2ccc(F)cc2)CC1
159 to 161 | CN1CCN(c2nn(S(=O)(=O)c3ccccc3)c3cc(F)ccc23)CC1
124 to 127 | CSc1ncc(Br)c(P(=O)(c2ccccc2)c2ccccc2)n1
267 to 272 | O=c1cc(-c2ccc(O)c(Br)c2)oc2ncccc12
114 to 115 | CC(C)(C)OC(=O)N1CCC(C(=O)c2nc3ccccc3n2Cc2ccc(F)cc2)CC1
127 to 129 | Cc1nc[nH]c1CSCCNC(=S)S
128 | Cn1cncc1C(O)(c1ccc(Cl)cc1)c1ccc2c(c1)c(CCc1ccc(Cl)s1)cc(=O)n2C (stereo not drawn)
100 to 101 | CCCCCn1c(=O)c(-c2ccccc2)c2n(c1=O)CCCS2
60 to 70 | CCCCCCCCCCCCCCCCCCOC(=O)c1ccc(N)cc1
85 to 87 | N#Cc1c(C(F)(F)F)nn(-c2c(Cl)cc(C(F)(F)F)cc2Cl)c1Br
246 to 248 | Cc1cccc(C)c1NC(=O)c1ccc(C(N)=O)cc1
153 to 155 | O=C(O)c1ccc(OCCCCCCc2ccc3cc(OCc4ccccc4)c(OCc4ccccc4)cc3c2)cc1
> 270 | CC1(C)C(=O)Nc2ccccc2NC1=O
68 to 78 | COC(=O)c1ccc(OC)c2c1CCO2
159 to 161 | Cc1[nH]c2ccc(CCN3CCCCC3)cc2c1C(=O)OCc1ccccc1

Compound | melting point [°C]
CNC(=O)ON=C1n2ccnc2S(=O)C1(C)C (stereo not drawn) | 148 to 149
CCN=C1SC(=NOC(=O)N(C)SC(Cl)(Cl)Cl)C(C)(C)S1 | 69 to 71
CCN1CCN(c2ccc(C(=O)OC)cc2)CC1 | 102 to 104
CN[C@@H](CO)Cc1ccccc1 | 69
CCN1C(=O)CSC1=NOC(=O)N(C)SC(Cl)(Cl)Cl | 126 to 128
COc1ccc([C@@H](CO)[C@H]2CCCCN2C(=O)OC(C)(C)C)cc1 | 115 to 117
CCc1c(C(=O)c2ccc(OC)cc2)c2cccc3c2n1C(CN1CCOCC1)CO3 (stereo not drawn) | 186 to 187
